{"source": "paper PMC10525257", "about": "“Hop Flower Supercritical Carbon Dioxide Extracts Coupled with Carriers with Solubilizing Properties—Antioxidant Activity and Neuroprotective Potential” (Antioxidants, 2023)", "biological_target": "T1, tyrosinase from mushroom", "T1 construct": "gene PPO1", "experiment": "dopachrome absorbance, […] nm, 96-well plate", "format": "biochemical", "conditions": "L-DOPA substrate (2.0 mM stock), phosphate buffer pH 6.8, room temperature"}
{"smiles": "O=C(O)CCCCCCCC(=O)O", "note": "[azelaic acid]", "values": [{"measurement": "IC50", "value": "6.455 ± 0.249", "unit": "mg/mL"}]}
